Values quoted from earlier work in patent US20110184054A1, “Alpha-lipoic acid concentrate” (AQUANOVA GERMAN SOLUBILISATE TECHNOLOGIES (AGT) GmbH, priority 2004, published 2011).

Assays:
[1] = system: rats
[2] = system: overweight patients

In the case of `O=C(O)CCCCC1CCSS1` (stereo not drawn) [α-lipoic acid], the appetite suppressing effect [1] is given as “a certain appetite suppressing effect” and the “effect on problems of overweight patients” value [2] is given as “alleviates their problems”.
